Experimental data from PMC12847965 (Nature Communications, 2025).

Biological target: T1, E. coli GlpG (Escherichia coli, UniProt P09391)
T1 sequence (P09391 1-276): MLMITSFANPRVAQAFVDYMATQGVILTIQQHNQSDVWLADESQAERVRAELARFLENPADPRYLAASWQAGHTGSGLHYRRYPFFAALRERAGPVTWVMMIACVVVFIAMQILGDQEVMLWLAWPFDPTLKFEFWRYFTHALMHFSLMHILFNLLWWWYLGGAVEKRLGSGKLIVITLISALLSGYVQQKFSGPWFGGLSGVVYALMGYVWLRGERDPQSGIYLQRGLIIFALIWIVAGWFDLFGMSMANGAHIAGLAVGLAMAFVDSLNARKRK
Assay: FRET peptide cleavage assay
Type: biochemical

How did the IC50 turn out when `Cc1ccc(S(=O)(=O)N[C@@H](Cc2ccccc2)C(=O)CCl)cc1` [tosyl phenylalanyl chloromethylketone] was run?
Its IC50 is 296 µM.
